# In patent US20210393742A1, “LONG-ACTING INTERLEUKIN-15 RECEPTOR AGONIST IN COMBINATION WITH ANOTHER PHARMACOLOGICALLY ACTIVE AGENT” (Nektar Therapeutics, priority 2018, published 2021):
# Columns and labels:
# Daudi B cell lymphoma = test: Survival in Daudi B cell lymphoma xenograft model, combination with rituximab (Example 1); type: in vivo, mice; conditions: after about 35 days; agonist 0.3 mg/kg, days 14 and 17
# Protocol: At day 0, SCID mice were intravenously injected with 1×10^7 Daudi cells. The mice were divided into four groups. On days 14 and 17 post-Daudi cell injection, the groups were treated by injection as follows: Group 1: isotype control antibody, Group 2: 40 mg/kg IP rituximab, Group 3: 0.3 mg/kg mono(methoxyPEG-N-butanamide)40 kD interleukin-15 (a long-acting IL-15 receptor agonist), Group 4: 40 mg/kg IP rituximab and 0.3 mg/kg SC mono(methoxyPEG-N-butanamide)40 kD interleukin-15 (combination).
# The survival rate was determined by measuring the onset of hind limb paralysis as a surrogate parameter.
# [1] = tested on: HCT-116 colorectal carcinoma cells; test: Tumor growth inhibition and delay in HCT-116 colorectal carcinoma xenograft model (Example 19); type: in vivo, mice
# Protocol: Tumor growth inhibition was evaluated on day 19 after treatment initiation.
# The tumor growth delay was evaluated by measuring tumor volume quadrupling time (TVQT) from baseline tumor volume on treatment initiation day.
# CD56+ human NK cells = test: Functional activation of human NK cells in PBMCs, CD69 and CD107a MFI by flow cytometry (Example 6); type: cell-based; conditions: overnight; Conjugate 1 1 μg/ml; plate coated with hIgG 0.1 mg/ml
# Protocol: Functional activation of human NK cells within a human peripheral blood mononuclear cells (PBMCs) preparation was induced in vitro. PBMCs from two donors were incubated overnight in the presence of (i) mono(methoxyPEG-N-butanamide)40 kD interleukin-15 (Conjugate 1) at a concentration of 1 μg/ml; (ii) on cell culture plastic that had been prior coated overnight with human total immunoglobulin G (hIgG) solution at a concentration of 0.1 mg/ml (iii) on cell culture plastic that had been prior coated overnight with human total immunoglobulin G (hIgG) solution at a concentration of 0.1 mg/ml and in the presence of Conjugate 1 at a concentration of 1 μg/ml; or (iv) on regular cell culture plastic.
# After the incubation period, NK cell activation was measured with flow cytometry by measuring the increase of median fluorescence intensity (MFI) signal of CD69 (FIG. 9A) and CD107a (FIG. 9B) detecting antibodies on the surface of CD56+ human NK cells within the PBMCs. Functional activation of NK cells was assessed by calculating the fold-change in MFI when comparing control condition where the cells were exposed to neither hIgG nor Conjugate 1. […] Secreted granzyme B concentration also indicative of NK cell activation in the culture media at the end of the experiment was measured by ELISA (FIG. 9C).
# [2] = tested on: HT-29 colorectal carcinoma cells; test: Tumor growth inhibition and delay in HT-29 colorectal carcinoma model (Example 18); type: in vivo, mice; conditions: day 21 after treatment initiation; cetuximab 40 mg/kg IP x6; Compound 1 0.3 mg/kg IV x3
# Protocol: Tumor growth inhibition was evaluated on day 21 after treatment initiation.
# The tumor growth delay (TVQT) was evaluated with the endpoint set as 400% tumor growth from baseline.
# [3] = tested on: STAT5 phosphorylation in KHYG-1 cells; test: Phosphorylation of STAT5 in KHYG-1 cells (Example 7); type: cell-based, human; conditions: 10 minutes
# Protocol: KHYG-1 cells were cultured in RPMI-1640 medium supplemented with 20% FBS, 2 mM L-glutamine, and 20 ng/mL IL-2 (Complete growth medium) in a humidified incubator at 37° C. and 5% CO2.
# One day prior to treatment with test compounds, cells were seeded at a density of 500,000 viable cells/ml in Complete growth medium and incubated overnight under normal growth conditions. On the day of the assay, KHYG-1 cells were washed 3 times with DPBS, resuspended in assay medium (RPMI-1640 medium supplemented with 20% FBS, 2 mM L-glutamine), and incubated for 4-5 hours at 37° C., 5% CO2. Cells were adjusted to the appropriate density (8×10^5 cells/mL) in assay medium and 50,000 cells/well were aliquoted into wells of a 96-well plate (View-Plate 96, Perkin-Elmer).
# KHYG-1 cells were stimulated with IL-15 or a long-acting IL-15 receptor agonist (mono(mPEG-butanamide)IL-15) followed by incubation at 37° C., 5% CO2 for 10 minutes. Treated cells were lysed on ice.
# Detection of phospho-STAT5 protein levels in cell lysates was performed using the Phospho(Tyr694)/Total STAT5a,b Assay Whole Cell Lysate kit (MSD product #K15163D). Relative light unit (RLU) signal corresponding to phosphor-STAT5 was collected using a Sector® Imager 2400 plate reader (MSD) with the results provided in FIG. 10A.
substance,measurement,setting,value
mono(methoxyPEG-N-butanamide)40 kD interleukin-15 [Conjugate 1],survival,Daudi B cell lymphoma,0%
same,tumor growth inhibition,"[1]; day 19 after treatment initiation, cetuximab 40 mg/kg IP x6, Compound 1 0.3 mg/kg IV x3",31%
same,tumor growth delay (TVQT),[1]; tumor volume quadrupling time from baseline,26%
same,CD69 MFI fold-change relative to no stimulation control,CD56+ human NK cells,1.8 fold
same,CD107a MFI fold-change relative to no stimulation control,CD56+ human NK cells,2.6 fold
same,tumor growth inhibition,[2],no tumor growth inhibition
same,phosphorylation of STAT5,[3],dose-dependent phosphorylation of STAT5
same,"potency in STAT5 phosphorylation, fold less than IL-15",[3],~3 fold
